Data published in patent US12648560B2, “Mosquito repellent composition and method for the preparation thereof” (priority 2019, dated 2026).

Key:
[1] = system: Aedes albopictus; experiment: Behavioural (blood-feeding) repellency test on feeders covered with pig intestinal skin; format: in vivo
Description: Testing was performed as to the activity of the compositions obtained by the method according to the invention on the behaviour of the tiger mosquito, Aedes albopictus.
The behavioural tests were carried out at the Montpellier Vectopôle, which is a research centre that collaborates with the WHO for the evaluation of insecticides in public health.
The tests were carried out on mosquitoes aged 5 to 9 days old after their evolution from pupae to adult.
In preparation for the experiment, the mosquitoes were […] on the day prior thereto, in order to promote their appetite for the test to occur the subsequent day.
Each cup contains a damp cotton. The female mosquitoes were removed from the cage making use of a tube that enables aspiration thereof. They were then introduced into each experiment cup (10 mosquitoes per cup).
The tests were carried out on plexiglass racks serving as supports for glass bells known as feeders. The latter are connected to each other by plastic pipes wherein water circulates at 37° C.
Pig intestinal skin was used to mimic human skin in the experiment. The pieces of intestinal skin are positioned and stretched over the feeders.
The repellent is diluted in ethyl alcohol (aka ethanol or EtOH) and is deposited on the skin using a micropipette and then spread over the entire surface. […] If the composition tested is a mixture of at least two compounds, one of which is PMD, the said composition is diluted in ethanol at a concentration of 0.02036 mg/μL, or else is diluted in ethanol until 0.02036 mg/μL of PMD is obtained.
The feeders are turned over, then 300 μL of sheep blood are placed in each feeder. The cups are inserted under each feeder.
Polystyrene plates are inserted between the lines of repellent so as to avoid possible interactions of odours. The duration of the experiment is one hour. The cups are then placed in a freezer at −20° C. for a period of 40 minutes. After freezing, the contents of one cup are placed between two sheets of paper, with the entirety thereof then being crushed with a plexiglass plate. The counting of the blood-fed (engorged) mosquitoes is done based on the number of red dots on the sheet of paper. The results are expressed as a percentage of repellency (100%-X % of blood-feeding). The percentage of blood-feeding is defined in relation to the EtOH negative control. DEET and commercial cis/trans PMD 75/25 at 200 mg/m^2 were used as positive controls.
The results obtained were statistically analysed using R software (R Development Core Team. R: A language and environment for statistical computing. R Foundation for Statistical Computing, Vienna, Austria. ISBN 3-900051-07-0, 2013) and represent the mean of 16 replicates. The percentage repellency values are presented as the mean±standard deviation. The R software also makes it possible to compare two percentage repellency values by means of calculating the quantity p. This quantity p is a probability.

[2] = system: acetylcholinesterase; details: enzyme of insects as also of mammals; cited from earlier work

Row | Structure (SMILES) | % Repellency ([1]; Table 2 series, 200 mg/m^2 in EtOH, 1 h, mean ± SD) [%] | % Repellency ([1]; Table 3 series, 200 mg/m^2 in EtOH, 1 h, mean ± SD) [%] | % Repellency ([1]; Table 4 series, PMD at 200 mg/m^2 in EtOH, mean ± SD) [%] | % Repellency ([1]; Table 5 series, PMD at 200 mg/m^2 in EtOH, mean ± SD) [%] | % Repellency ([1]; Table 6 series, PMD at 200 mg/m^2 in EtOH, mean ± SD) [%] | % Repellency ([1]; Table 7 series, PMD at 200 mg/m^2 in EtOH, mean ± SD) [%] | ED 50 expressed as concentration ([1]; concentration in EtOH tantamount to 200 mg/m^2) [mg/mL] | ED 50 (median effective dose) ([1]; repellency, dose on skin surface) [mg/m^2] | acetylcholinesterase inhibition [2] | % Repellency ([1]; Table 2 series, 110 mg/m^2 in EtOH, 1 h, mean ± SD of 16 replicates) [%] | % Repellency ([1]; Table 3 series, 110 mg/m^2 in EtOH, 1 h, mean ± SD) [%] | % Repellency ([1]; Table 4 series, 110 mg/m^2 in EtOH, mean ± SD) [%] | % Repellency ([1]; Table 5 series, 110 mg/m^2 in EtOH, mean ± SD) [%] | % Repellency ([1]; Table 6 series, 110 mg/m^2 in EtOH, mean ± SD) [%] | % Repellency ([1]; Table 7 series, 110 mg/m^2 in EtOH, mean ± SD) [%]
1 | CC1CCC(C(C)(C)O)C(O)C1 (mixture of isomers) [Commercial cis/trans PMD 75/25, p-menthane-3,8-diol] | 51 ± 11 | 55 ± 1 | 31 ± 7 | 36 ± 1 | 48 ± 15 | 52 ± 12 | 20.36 | 200 |  |  |  |  |  |  | 
2 | CCN(CC)C(=O)c1cccc(C)c1 [DEET, N,N diethyl-meta-toluamide] |  |  |  |  |  |  |  |  | inhibits | 76 ± 9 | 56 ± 8 | 39 ± 7 | 49 ± 17 | 73 ± 2 | 43 ± 13
